According to US20170051149A1, “AZOARYLS AS REVERSIBLY MODULATABLE TUBULIN INHIBITORS” (ECOLE NORMALE SUPERIEURE DE LYON, priority 2014, published 2017):

Experiments:
Assay type in all cases: cell-based
MDA-MB-231 cells = test: in cellulo tubulin imaging, immunostaining of microtubule cytoskeleton; conditions: 20 h; for effect on microtubule structure: 390 nm regimen (200 ms every 2 min)
Procedure: In order to investigate the influence of compound I.1 on microtubule structure in cellulo, immunostaining of the microtubule cytoskeleton in MDA-MB-231 cells was performed. Cells were treated with compound I.1 and then kept in dark conditions, or exposed to 390 nm light (200 ms every 2 min), or exposed to a rescue protocol with sequential pulses of 390 nm light (200 ms every 2 min) then immediately 505 nm (600 ms every 2 min). After 20 h of treatment cells were fixed, stained and subjected to confocal microscopy.
Briefly, prior to analysis, cells were washed with pre-warmed PBS then cell extraction buffer (80 mM piperazine-N,N′-bis(2-ethanesulfonic acid) [abbreviated PIPES], 1 mM MgCl2, 5 mM EGTA-K and 0.5% Triton X-100, at pH 6.8) was added to remove monomeric and dimeric tubulin subunits. After 30 s of extraction, cells were fixed for 10 min with 0.5% glutaraldehyde. Following glutaraldehyde quenching with 0.1% NaBH4 in PBS for 7 min, coverslips were blocked with PBS containing 0.2% BSA (bovine serum albumin). Immunostaining was performed using anti-α-tubulin antibody (ab18251) and the AlexaFluor 488 secondary antibody (A 11008), purchased from Abcam (Cambridge, UK) and Invitrogen (Darmstadt, Germany), respectively. Hoechst 33342 (bisbenzimide), purchased from Sigma-Aldrich (catalogue number B2261; Taufkirchen, Germany), was used at a concentration of 1 ug/ml for nuclear staining. Cells were mounted with PermaFluor™ mounting medium (Beckman Coulter) and analyzed with a Zeiss LSM 510 Meta confocal microscope (Jena, Germany). Acquired images were processed using the ImageJ program (National Institutes of Health) and representative images are collected in FIG. 7.

HeLa cells = test: cytotoxicity by crystal violet staining; conditions: 40 h
Procedure: Seven of the compounds according to the invention were selected for biological tests. Their cytotoxicity was assessed using crystal violet staining as adapted from standard procedure^[31]. Briefly, HeLa cells were seeded on 96-well plates, treated with the given concentrations of the selected compound, and exposed or not to the pulse protocol of illumination with light at 390 nm (pulses of 75 ms every 15 s). After 40 h cells were stained with crystal violet solution (0.5% crystal violet in 20% methanol) for 10 min. Unbound crystal violet was removed by rinsing with distilled water and cells were air-dried. Crystal violet was subsequently eluted from cells with 0.1 M sodium citrate in 50% ethanol. The absorbance of crystal violet is proportional to the cell number and was determined at 590 nm with a FLUOstar Omega microplate reader (BMG Labtech).
Each compound was tested at 6 doses: 100 nM, 500 nM, 1 μM, 2 μM, 5 μM and 10 μM. In order to ensure their solubility in the cell culture media, DMSO was used as a co-solvent, and to provide comparability between all samples the volume of DMSO was adjusted to obtain its final concentration as 1% in the cell culture media for all the compounds at all concentrations tested.
Results presented in Table 4 below are expressed as a fold growth relative to the control growth of the cells treated only with a co-solvent (1% DMSO), and are represented as a mean value from triplicates coming from a representative experiment.

Jurkat cells = test: membrane permeability, PI uptake in nonpermeabilized cells; conditions: 48 h
Procedure: (§1) Membrane integrity was assessed as a marker of cellular viability, via examining the uptake of propidium iodide (PI) in nonpermeabilized cells according to a standard protocol. Namely, cells were harvested and incubated with 5 μg/mL PI in PBS containing 2% FCS (foetal calf serum), and immediately analysed by flow cytometry using a FACSCalibur flow cytometer.

HeLa = test: as above; conditions: 70 h
Procedure: as §1

MDA-MB-231 = test: as above; conditions: 70 h
Procedure: as §1

[1] = 200 nM, 390 nm (1 s every 15 min)
[2] = 600 nM, 390 nm (1 s every 15 min)
[3] = 1.5 μM, 390 nm (1 s every 15 min)
[4] = 5 μM, 390 nm (1 s every 15 min)

Question: COc1ccc(N=Nc2cc(OC)c(OC)c(OC)c2)cc1O [I.1, 2-methoxy-5-((3,4,5-trimethoxyphenyl)diazenyl)phenol] was tested. Which “effect on microtubule structure” value (MDA-MB-231 cells; 1.5 μM) did it give?
Answer: degradation of the microtubule cytoskeleton

Question: What about the “effect on microtubule structure” value (MDA-MB-231 cells; 4 μM) of the same compound?
Answer: complete microtubule breakdown plus fragmentation of the nuclei

Question: What about the “nuclear fragmentation and microtubule destruction” value (MDA-MB-231 cells; kept in the dark) of the same compound?
Answer: not observed

Question: What about the “effect of rescue protocol on signs of cytotoxic effects” value (MDA-MB-231 cells; rescue: 390 nm (200 ms) then 505 nm (600 ms) every 2 min) of the same compound?
Answer: dose-dependent reduction of the signs of cytotoxic effects

Question: And the mean fold growth (HeLa cells; 100 nM, 390 nm (75 ms every 15 s))?
Answer: 0.95 fold

Question: And the mean fold growth (HeLa cells; 100 nM, Dark)?
Answer: 0.95 fold

Question: And the mean fold growth (HeLa cells; 500 nM, 390 nm (75 ms every 15 s))?
Answer: 0.85 fold

Question: What about the mean fold growth (HeLa cells; 500 nM, Dark) of the same compound?
Answer: 0.89 fold

Question: What about the mean fold growth (HeLa cells; 1 μM, 390 nm (75 ms every 15 s)) of the same compound?
Answer: 0.43 fold

Question: What about the mean fold growth (HeLa cells; 1 μM, Dark) of the same compound?
Answer: 0.87 fold

Question: What about the mean fold growth (HeLa cells; 2 μM, 390 nm (75 ms every 15 s)) of the same compound?
Answer: 0.35 fold

Question: What about the mean fold growth (HeLa cells; 2 μM, Dark) of the same compound?
Answer: 0.89 fold

Question: And the mean fold growth (HeLa cells; 5 μM, 390 nm (75 ms every 15 s))?
Answer: 0.27 fold

Question: What about the mean fold growth (HeLa cells; 5 μM, Dark) of the same compound?
Answer: 0.84 fold

Question: And the mean fold growth (HeLa cells; 10 μM, 390 nm (75 ms every 15 s))?
Answer: 0.35 fold

Question: What about the mean fold growth (HeLa cells; 10 μM, Dark) of the same compound?
Answer: 0.75 fold

Question: And the “mean % cells PI+” value (Jurkat cells; 50 nM, 390 nm (350 ms every 5 min))?
Answer: 1.3%

Question: What about the “mean % cells PI+” value (Jurkat cells; 50 nM, Dark) of the same compound?
Answer: 1.6%

Question: What about the “mean % cells PI+” value (Jurkat cells; 100 nM, 390 nm (350 ms every 5 min)) of the same compound?
Answer: 2.3%

Question: And the “mean % cells PI+” value (Jurkat cells; 100 nM, dark)?
Answer: 2.2%

Question: What about the “mean % cells PI+” value (Jurkat cells; 200 nM, 390 nm (350 ms every 5 min)) of the same compound?
Answer: 3.4%

Question: What about the “mean % cells PI+” value (Jurkat cells; 200 nM, dark) of the same compound?
Answer: 2.3%

Question: What about the “mean % cells PI+” value (Jurkat cells; 400 nM, 390 nm (350 ms every 5 min)) of the same compound?
Answer: 6.3%

Question: And the “mean % cells PI+” value (Jurkat cells; 400 nM, dark)?
Answer: 2.3%

Question: And the “mean % cells PI+” value (Jurkat cells; 600 nM, 390 nm (350 ms every 5 min))?
Answer: 8.1%

Question: And the “mean % cells PI+” value (Jurkat cells; 600 nM, dark)?
Answer: 2.8%

Question: And the “mean % cells PI+” value (HeLa; [1])?
Answer: 4.5%

Question: And the “mean % cells PI+” value (HeLa; 200 nM, dark)?
Answer: 4.5%

Question: And the “mean % cells PI+” value (HeLa; [2])?
Answer: 8.2%

Question: What about the “mean % cells PI+” value (HeLa; 600 nM, dark) of the same compound?
Answer: 4.3%

Question: And the “mean % cells PI+” value (HeLa; [3])?
Answer: 46.1%

Question: And the “mean % cells PI+” value (HeLa; 1.5 μM, dark)?
Answer: 4.2%

Question: What about the “mean % cells PI+” value (HeLa; [4]) of the same compound?
Answer: 73.0%

Question: And the “mean % cells PI+” value (HeLa; 5 μM, dark)?
Answer: 5.1%

Question: And the “mean % cells PI+” value (MDA-MB-231; [1])?
Answer: 4.4%

Question: And the “mean % cells PI+” value (MDA-MB-231; 200 nM, dark)?
Answer: 5.0%

Question: What about the “mean % cells PI+” value (MDA-MB-231; [2]) of the same compound?
Answer: 8.2%

Question: And the “mean % cells PI+” value (MDA-MB-231; 600 nM, dark)?
Answer: 4.6%

Question: And the “mean % cells PI+” value (MDA-MB-231; [3])?
Answer: 24.1%

Question: What about the “mean % cells PI+” value (MDA-MB-231; 1.5 μM, dark) of the same compound?
Answer: 4.3%

Question: What about the “mean % cells PI+” value (MDA-MB-231; [4]) of the same compound?
Answer: 47.2%

Question: What about the “mean % cells PI+” value (MDA-MB-231; 5 μM, dark) of the same compound?
Answer: 5.0%
